These are literature values, as cited in US9011962B2, “Bovine meat compositions having enhanced quality, nutritive and health values obtained from enrichment diets” (priority 2007, dated 2015).

The conditions of data set [1]: in vivo.

Turning to `[Se]` [selenium], the “upper limit from food and supplements likely to pose no risk of adverse health effects” value (FDA) is reported as 400 micrograms per day. Besides, the “safe daily intake for human use” value (Rayman review) is on record as “approximately 15 micrograms per kilogram body weight per day”. For the same compound, for the setting “recognized by FDA”, the “lowest-observed adverse effect level of selenium intake” value is 900 micrograms per day and the “no-observed adverse effect level” value is recorded as 800 micrograms per day.
Turning to `C[Se]CC[C@H](N)C(=O)O` [Selenomethionine, selenomethionine], the “Bioavailability (relative)” value in data set [1] was 245.
